{"source": "patent US8822413B2", "about": "“Bifunctional hormone having alpha-MSH activity and natriuretic peptide activity and uses thereof” (Theratechnologies Inc., priority 2007, dated 2014)", "key": {"normal men": {"tested_on": "normal men", "conditions": "infusion in normal men; cited from earlier work"}, "ANP receptor": {"biological_target": "T1, ANP receptor (Sus scrofa, UniProt F1SFW3)", "T1 construct": "ANP receptor-expressing LLC-PK1 cells; endogenous in cells; host or cells: LLC-PK1 cells", "T1 sequence (F1SFW3 29-1057)": "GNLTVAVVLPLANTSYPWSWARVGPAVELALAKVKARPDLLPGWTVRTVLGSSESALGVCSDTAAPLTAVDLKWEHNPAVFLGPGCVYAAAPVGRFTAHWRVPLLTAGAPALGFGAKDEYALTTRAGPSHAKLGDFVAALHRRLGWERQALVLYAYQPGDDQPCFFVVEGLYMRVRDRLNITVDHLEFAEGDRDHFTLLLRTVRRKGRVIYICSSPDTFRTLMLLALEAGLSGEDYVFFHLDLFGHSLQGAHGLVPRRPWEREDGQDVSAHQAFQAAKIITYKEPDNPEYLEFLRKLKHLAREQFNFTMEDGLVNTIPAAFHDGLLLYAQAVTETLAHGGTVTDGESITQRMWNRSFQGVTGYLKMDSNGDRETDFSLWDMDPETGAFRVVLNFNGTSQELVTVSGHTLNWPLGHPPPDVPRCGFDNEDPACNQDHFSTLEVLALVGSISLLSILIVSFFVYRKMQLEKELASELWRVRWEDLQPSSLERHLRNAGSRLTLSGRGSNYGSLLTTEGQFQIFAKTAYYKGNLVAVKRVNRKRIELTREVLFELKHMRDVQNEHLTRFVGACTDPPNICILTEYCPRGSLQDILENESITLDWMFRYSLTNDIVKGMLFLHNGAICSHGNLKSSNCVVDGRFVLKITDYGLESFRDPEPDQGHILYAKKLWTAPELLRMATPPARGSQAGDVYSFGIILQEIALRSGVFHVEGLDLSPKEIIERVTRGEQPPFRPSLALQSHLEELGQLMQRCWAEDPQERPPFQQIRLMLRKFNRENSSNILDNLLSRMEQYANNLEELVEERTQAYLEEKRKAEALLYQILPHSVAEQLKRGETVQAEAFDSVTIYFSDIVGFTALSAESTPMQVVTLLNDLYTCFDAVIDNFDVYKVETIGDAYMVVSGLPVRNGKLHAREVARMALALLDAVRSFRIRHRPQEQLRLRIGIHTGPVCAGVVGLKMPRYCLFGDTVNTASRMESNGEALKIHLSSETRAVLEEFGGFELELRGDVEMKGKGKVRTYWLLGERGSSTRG", "assay": "cGMP production in ANP receptor-expressing LLC-PK1 cells", "type": "cell-based", "conditions": "30 min stimulation, 10^-6M through 10^-12M", "protocol": "The bifunctional hormone was tested on ANP receptor-expressing LLC-PK1 cells and on MCR1 receptor-expressing B16-F1 cells. Both cell types were cultured 24 hours before the stimulation, in 96-well plates, at a concentration of 1.0×10^5 cells/ml. Before stimulation, cells were starved 2 hours in DPBS only and incubated 10 min in assay buffer (DPBS containing 20 mM HEPES, 0.1% BSA and 500 μM IBMX). The dose response curve of the bifunctional hormone was done for 30 minutes with concentrations of 10^−6M through 10^−12M. Supernatant was collected and cAMP (B16-F1) or cGMP (LLC-PK1) was measured with a radiolabeled kit from GE Healthcare Company."}}, "note": "Bridge positions count the residues as written; N and C are the ends. Square brackets hold non-standard residues; d marks the D form. Peptide text beside a SMILES is read from it. Nle = CCCC[C@H](N)C(=O)O"}
{"compound": "S-P-K-M-V-Q-G-S-G-[C-P-G-R-K-M-D-R-I-S-S-S-S-G-L-G-C]-K-V-L-R-R-H [BNP]", "values": [{"measurement": "increase in sodium excretion", "setting": "normal men", "value": 2, "unit": "fold"}, {"measurement": "reduction in plasma renin, angiotensin II and aldosterone secretion", "setting": "normal men", "value": 50, "unit": "%"}]}
{"compound": "CCCC[C@@H]1NC(=O)[C@H](CCCNC(=N)N)NC(=O)CNC(=O)CNC(=O)[C@H](Cc2ccccc2)NC(=O)[C@H](Cc2c[nH]cn2)NC(=O)[C@@H](NC(=O)[C@H](CCCC)NC(=O)[C@@H]2CCCN2C(=O)[C@H](CCCCN)NC(=O)CNC(=O)[C@H](Cc2c[nH]c3ccccc23)NC(=O)[C@H](CCCNC(=N)N)NC(=O)[C@@H](Cc2ccccc2)NC(=O)[C@H](Cc2c[nH]cn2)NC(C)=O)CSSC[C@@H](C(=O)N[C@@H](Cc2ccc(O)cc2)C(=O)N[C@@H](CCCNC(=N)N)C(N)=O)NC(=O)[C@H](CO)NC(=O)[C@H]([C@@H](C)CC)NC(=O)[C@H](CCCNC(=N)N)NC(=O)[C@H](CC(=O)O)NC1=O", "note": "[SEQ ID NO: 34, Ac-H-f-R-W-G-K-P-Nle-[C-H-F-G-G-R-Nle-D-R-I-S-C]-Y-R-NH2] (Ac-H[dF]RWGKP[Nle]CHFGGR[Nle]DRISCYR-NH2; disulfide 9-20)", "values": [{"measurement": "EC50", "setting": "ANP receptor; NR = No response detected", "value": 132, "unit": "nM"}]}
{"compound": "CCCC[C@@H]1NC(=O)[C@H](CCCNC(=N)N)NC(=O)CNC(=O)CNC(=O)[C@H](Cc2ccccc2)NC(=O)[C@H](Cc2c[nH]cn2)NC(=O)[C@@H](NC(=O)[C@@H](N)CCCC)CCC(=O)NCCCC[C@@H](C(=O)N[C@@H](Cc2ccc(O)cc2)C(=O)N[C@@H](CCCNC(=N)N)C(=O)N[C@@H](Cc2c[nH]cn2)C(=O)N[C@H](Cc2ccccc2)C(=O)N[C@@H](CCCNC(=N)N)C(=O)N[C@@H](Cc2c[nH]c3ccccc23)C(N)=O)NC(=O)[C@H](CO)NC(=O)[C@H]([C@@H](C)CC)NC(=O)[C@H](CCCNC(=N)N)NC(=O)[C@H](CC(=O)O)NC1=O", "note": "[SEQ ID NO: 29, Nle-[E-H-F-G-G-R-Nle-D-R-I-S-K]-Y-R-H-f-R-W-NH2] (H-[Nle]EHFGGR[Nle]DRISKYRH[dF]RW-NH2; lactam 2-13)", "values": [{"measurement": "EC50", "setting": "ANP receptor", "value": 1430, "unit": "nM"}]}
{"compound": "CC[C@H](C)[C@@H]1NC(=O)[C@H](CCCNC(=N)N)NC(=O)[C@H](CC(=O)O)NC(=O)[C@H](CCSC)NC(=O)[C@H](CCCNC(=N)N)NC(=O)CNC(=O)CNC(=O)[C@H](Cc2ccccc2)NC(=O)[C@@H](NC(=O)[C@H](CO)NC(=O)[C@H](CO)NC(=O)[C@H](CCCNC(=N)N)NC(=O)[C@H](CCCNC(=N)N)NC(=O)CNC(=O)[C@H](Cc2c[nH]c3ccccc23)NC(=O)[C@H](CCCNC(=N)N)NC(=O)[C@H](Cc2ccccc2)NC(=O)[C@H](Cc2c[nH]cn2)NC(=O)[C@H](CCC(=O)O)NC(=O)[C@@H](N)CCSC)CSSC[C@@H](C(=O)N[C@@H](CC(N)=O)C(=O)N[C@@H](CO)C(=O)N[C@@H](Cc2ccccc2)C(=O)N[C@@H](CCCNC(=N)N)C(=O)N[C@@H](Cc2ccc(O)cc2)C(N)=O)NC(=O)CNC(=O)[C@H](CC(C)C)NC(=O)CNC(=O)[C@H](CO)NC(=O)[C@H](CCC(N)=O)NC(=O)[C@H](C)NC(=O)CNC1=O", "note": "[SEQ ID NO: 36, M-E-H-F-R-W-G-R-R-S-S-[C-F-G-G-R-M-D-R-I-G-A-Q-S-G-L-G-C]-N-S-F-R-Y-NH2] (H-MEHFRWGRRSSCFGGRMDRIGAQSGLGCNSFRY-NH2; disulfide 12-28)", "values": [{"measurement": "EC50", "setting": "ANP receptor; NR = No response detected", "value": 33.1, "unit": "nM"}]}
{"compound": "CCCC[C@@H]1NC(=O)[C@H](CCCNC(=N)N)NC(=O)CNC(=O)CNC(=O)[C@H](Cc2ccccc2)NC(=O)[C@@H](NC(=O)[C@H](CCCC)NC(=O)[C@@H]2CCCN2C(=O)[C@H](CCCCN)NC(=O)CNC(=O)[C@H](Cc2c[nH]c3ccccc23)NC(=O)[C@H](CCCNC(=N)N)NC(=O)[C@@H](Cc2ccccc2)NC(=O)[C@H](Cc2c[nH]cn2)NC(C)=O)CSSC[C@@H](C(=O)N[C@@H](CC(N)=O)C(=O)N[C@@H](CO)C(=O)N[C@@H](Cc2ccccc2)C(=O)N[C@@H](CCCNC(=N)N)C(=O)N[C@@H](Cc2ccc(O)cc2)C(N)=O)NC(=O)CNC(=O)[C@H](CC(C)C)NC(=O)CNC(=O)[C@H](CO)NC(=O)[C@H](CCC(N)=O)NC(=O)[C@H](C)NC(=O)CNC(=O)[C@H]([C@@H](C)CC)NC(=O)[C@H](CCCNC(=N)N)NC(=O)[C@H](CC(=O)O)NC1=O", "note": "[SEQ ID NO: 35, Ac-H-f-R-W-G-K-P-Nle-[C-F-G-G-R-Nle-D-R-I-G-A-Q-S-G-L-G-C]-N-S-F-R-Y-NH2] (Ac-H[dF]RWGKP[Nle]CFGGR[Nle]DRIGAQSGLGCNSFRY-NH2; disulfide 9-25)", "values": [{"measurement": "EC50", "setting": "ANP receptor; NR = No response detected", "value": 216, "unit": "nM"}]}
